Measurements as given in US20080003226A1, “Method to Reduce Hepatoxicity of Fas-Mediated Apoptosis-Inducing Agents” (APOXIS SA, priority 2004, published 2008).

System: mesothelioma and ovarian cancer cell lines
Test: Cytotoxicity of MegaFasL as single agent and in combination with cisplatin in vitro
Assay type: cell-based
Settings: compound alone
Description: Use of the Fas-mediated apoptosis inducing agents defined above and more particularly hexamers of the soluble fraction of FasL as defined above as an adjuvant with existing chemotherapies is another embodiment of the present invention. […] Actually, the antitumor effectiveness of MegaFasL as single agent and in combination with cisplatin was evaluated first on mesothelioma and ovarian cancer cell lines in vitro.

SMILES: N.N.[Cl][Pt][Cl] [cisplatin]
- cell death: only marginal cell death
